Experimental data reported in patent publication US6573059B1, “Use of the regulatory subunit of the camp dependent protein kinase (PKA) from dictyostelium for camp measurements” (RMF Dictagene S.A., priority 2000, dated 2003).
Values joined by “and” are separate entries in the source; they are usually repeats but may differ in a detail not shown here. Equal values may be shown once. Read-outs that look alike come from different tables or passages of the source.

Key:
[1] = molecular target: T1, R26-GFP (truncated R subunit of cAMP dependent protein kinase (PKA), cAMP binding site A, fused to w7 GFP) (Dictyostelium discoideum, UniProt P05987); test: FRET titration and competition for cyclic nucleotide binding to purified R26-GFP
T1 sequence (P05987 1-170): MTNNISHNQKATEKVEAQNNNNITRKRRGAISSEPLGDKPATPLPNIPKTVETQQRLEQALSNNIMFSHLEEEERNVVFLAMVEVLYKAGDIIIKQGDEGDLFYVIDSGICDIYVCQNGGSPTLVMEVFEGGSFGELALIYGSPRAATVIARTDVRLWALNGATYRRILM
Method: Fluorescently labelled cGMP (8-{{2-{(Fluoresceinylthioureido)amino}ethyl}thio} guanosine-3′, 5′-cyclic, Biolog) was added to purified R26-GFP and fluorescence emission recorded while exciting at 433 nm.
In a further experiment, unlabelled cAMP was added in a 5 fold excess over 8-fluo-cGMP.
The concentration of labelled 8-fluo-cGMP was varied while recording fluorescence changes (FIG. 3, inset).
In order to measure the real KD for cAMP, a competition experiment was performed by varying stepwise 8-fluo-cGMP concentration For each 8-fluo-cGMP concentration, increasing concentrations of unlabelled cAMP was added, allowing to calculate the apparent KD for cAMP in each Case (FIG. 4).
For FRET measurements, R-26-GFP was diluted to about 0.1 μM. Excitation was performed at 433 nm, while emission was recorded over a range from 450 to 550 nm in a PTI C60 spectrofluorimeter (Photon Technology International).
Different concentrations of 8-Fluo-cGMP (8-{{2-{(Fluoresecinylthioureido)amino}ethyl}thio} guanosine 3′, 5′-cyclic monophosphate, Biolog) were added as indicated (5 fold excess in FIG. 2, open squares) and emission spectra were recorded again. […] In competition experiments, unlabelled cAMP was added at the indicated concentrations (FIG. 3, 100 μM).

[2] = molecular target: regulatory subunit of the cAMP dependent protein kinase (PKA) from Dictyostelium (Dictyostelium discoideum, UniProt P05987); settings: read-out: KD for cAMP; Dictyostelium R subunit, background section; cited from earlier work
[3] = molecular target: mammalian enzymes (PKA regulatory subunit); settings: read-out: KD for cAMP, background section; cited from earlier work
[4] = tested on: double GFP-R (R subunit with w7 and S65T GFPs flanking cAMP binding site A); settings: 500 μM cAMP, emission spectrum, excitation 434 nm
Method: The spectral properties of the double GFP-R were determined using a spectrofluorimeter PTI C60 with photomultiplicator. […] The shoulder corresponds to the emission of the w7, whereas the major peak represents S65T emission.
A conformational change could also result simply from the binding of cAMP. The double GFP-R was incubated with increasing concentrations of cAMP.
Emission spectra from 450 to 550 nm were recorded using a fixed excitation at 434 nm with a bandwidth of 8 nm and an integration time between 0.2 and 1 sec (FIG. 6).
In a second experiment, partially purified double GFP-R was incubated in the presence of increasing concentration of cAMP (FIG. 6B).

Chain of regulatory subunit of the cAMP dependent protein kinase (PKA) from Dictyostelium (P05987 whole entry): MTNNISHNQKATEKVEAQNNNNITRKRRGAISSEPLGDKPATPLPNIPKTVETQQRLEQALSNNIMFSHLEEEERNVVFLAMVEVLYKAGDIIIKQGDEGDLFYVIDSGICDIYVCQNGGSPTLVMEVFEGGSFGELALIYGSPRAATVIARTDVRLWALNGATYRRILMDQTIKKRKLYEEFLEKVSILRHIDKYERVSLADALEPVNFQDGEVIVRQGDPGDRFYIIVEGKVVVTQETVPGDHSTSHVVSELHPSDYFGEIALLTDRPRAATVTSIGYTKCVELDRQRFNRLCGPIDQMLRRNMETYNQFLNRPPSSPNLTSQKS

Work on `Nc1ncnc2c1nc(SCCNC(=S)Nc1ccc3c(c1)C(=O)OC31c3ccc(O)cc3Oc3cc(O)ccc31)n2[C@@H]1O[C@@H]2COP(=O)(O)O[C@H]2[C@H]1O` [8-fluo-cAMP, 8-{{2-{(Fluoresceinylthioureido)amino}ethyl}thio}adenosine-3′,5′-cyclic monophosphate] yielded a Kd [1] of ~4.5 nM.

With `Nc1nc2c(nc(SCCNC(=S)Nc3ccc4c(c3)C(=O)OC43c4ccc(O)cc4Oc4cc(O)ccc43)n2[C@@H]2O[C@@H]3COP(=O)(O)O[C@H]3[C@H]2O)c(=O)[nH]1` [8-fluo-cGMP, 8-{{2-{(Fluoresecinylthioureido)amino}ethyl}thio} guanosine 3′, 5′-cyclic monophosphate] the Kd [1] was ~80 nM.

In the case of `Nc1ncnc2c1ncn2[C@@H]1O[C@@H]2COP(=O)(O)O[C@H]2[C@H]1O` [cAMP], the Kd [2] is given as ~20 nM, the Kd [3] is given as 10 to 30 nM and the Kd ([1]; true KD for cAMP, competition of unlabelled cAMP with 8-fluo-cGMP, apparent KDs extrapolated to 0) is given as 20 nM and ~20 nM. For the same compound, the “amplitude change compared to double GFP/R alone” value [4] was “about 10%”.

Work on `Nc1nc2c(ncn2[C@@H]2O[C@@H]3COP(=O)(O)O[C@H]3[C@H]2O)c(=O)[nH]1` [cGMP] yielded a Kd ([1]; reverse competition experiment, read-out: KD for cGMP) of ~1850 nM.
